Results reported in PubChem BioAssay AID1919008 (Molecular Pharmacology Branch, DTP, NCI, 2023).

Test system: DMS-114 complex spheroids with HUVEC/MSC, growth % test/control
Assay: Anticancer human tumor DMS-114 cell line growth inhibition [AhR];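 further: spheroids exposed to agents for 7 days before readout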;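 on viability, T/C: 100% = DMSO vehicle control wells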
Settings: for IC50: curve of first compound; for viability, T/C: stronger effect = lower value
Method in brief: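 Complex tumor spheroids co-cultured with HUVEC and human MSC stroma; AhR antagonists tested in combination with standard-of-care and investigational agents. Top concentration at or near clinical Cmax (else 10 microM), half-log dilutions; growth expressed as percent test/control.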

## CC(C)c1c(-c2ccccc2)nc2c(C#N)c[nH]n2c1=O + Cc1cncc(-c2nc(NCCc3c[nH]c4ccccc34)c3ncn(C(C)C)c3n2)c1
Second compound 0.1 µM
  IC50: > 10 µM
Second compound 0.316 µM
  IC50: > 10 µM
Second compound 1 µM
  IC50: > 10 µM
Second compound 3.16 µM
  IC50: > 10 µM
Second compound 10 µM
  IC50: < 0.0316 µM
Second compound 0.1 µM, first compound 0.0316 µM
  viability, T/C: 111%
Second compound 0.1 µM, first compound 0.1 µM
  viability, T/C: 100%
Second compound 0.1 µM, first compound 0.316 µM
  viability, T/C: 103%
Second compound 0.1 µM, first compound 1 µM
  viability, T/C: 108%
Second compound 0.1 µM, first compound 3.16 µM
  viability, T/C: 97.4%
Second compound 0.1 µM, first compound 10 µM
  viability, T/C: 97.4%
Second compound 0.316 µM, first compound 0.0316 µM
  viability, T/C: 107%
Second compound 0.316 µM, first compound 0.1 µM
  viability, T/C: 97.9%
Second compound 0.316 µM, first compound 0.316 µM
  viability, T/C: 103%
Second compound 0.316 µM, first compound 1 µM
  viability, T/C: 92.6%
Second compound 0.316 µM, first compound 3.16 µM
  viability, T/C: 111%
Second compound 0.316 µM, first compound 10 µM
  viability, T/C: 95.3%
Second compound 1 µM, first compound 0.0316 µM
  viability, T/C: 107%
Second compound 1 µM, first compound 0.1 µM
  viability, T/C: 107%
Second compound 1 µM, first compound 0.316 µM
  viability, T/C: 102%
Second compound 1 µM, first compound 1 µM
  viability, T/C: 112%
Second compound 1 µM, first compound 3.16 µM
  viability, T/C: 101%
Second compound 1 µM, first compound 10 µM
  viability, T/C: 108%
Second compound 3.16 µM, first compound 0.0316 µM
  viability, T/C: 92.9%
Second compound 3.16 µM, first compound 0.1 µM
  viability, T/C: 80.6%
Second compound 3.16 µM, first compound 0.316 µM
  viability, T/C: 83.3%
Second compound 3.16 µM, first compound 1 µM
  viability, T/C: 88.8%
Second compound 3.16 µM, first compound 3.16 µM
  viability, T/C: 86.4%
Second compound 3.16 µM, first compound 10 µM
  viability, T/C: 92.6%
Second compound 10 µM, first compound 0.0316 µM
  viability, T/C: 30.4%
Second compound 10 µM, first compound 0.1 µM
  viability, T/C: 40.1%
Second compound 10 µM, first compound 0.316 µM
  viability, T/C: 33.3%
Second compound 10 µM, first compound 1 µM
  viability, T/C: 40%
Second compound 10 µM, first compound 3.16 µM
  viability, T/C: 32.5%
Second compound 10 µM, first compound 10 µM
  viability, T/C: 46.4%
